Values quoted from earlier work in patent publication US20250275939A1, “CO-CRYSTALS” (UNIVERSITY OF IOWA RESEARCH FOUNDATION, priority 2024, published 2025).
Where two headings read alike, the source gives them in different places. Peptide text beside a SMILES is read from it.

Experiments:
[1] = in vivo
[2] = in vivo; remark: listed apart in the source
[3] = humans, adults and children
[4] = humans, after a single oral dose

C1N2CN3CN1CN(C2)C3 [Methenamine]
serum enzyme elevations / clinically apparent acute liver injury [1]: has not been linked to serum enzyme elevations or to instances of clinically apparent acute liver injury

Cc1nc(C)c(C)nc1C [TMP, tetramethyl pyrazine]
penetration of the blood-brain barrier [2]: can penetrate the blood-brain barrier

COC(=O)[C@H](Cc1ccccc1)NC(=O)[C@@H](N)CC(=O)O [aspartame, Aspartame] (H-Asp-Phe-OMe)
acceptable daily intake ([3]; Europe): 40 mg/kg bodyweight | acceptable daily intake ([3]; United States): 50 mg/kg bodyweight

O=c1c(O)c(-c2ccc(O)c(O)c2)oc2cc(O)cc(O)c12 [quercetin, Quercetin]
oral bioavailability [4]: ~2%
